Data as given in PubChem BioAssay (NCI).
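Briefly, cells in 96-well plates were exposed to five compound concentrations for 48 h, and endpoints were estimated by linear interpolation. TGI marks complete inhibition of growth.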

Assays:
Assay in all cases: growth of human tumour cells (NCI), 48 h
SNB-19 CNS = test system: SNB-19 CNS
T-47D breast = test system: T-47D breast
HOP-92 NSCLC = test system: HOP-92 NSCLC
HCC-2998 colon = test system: HCC-2998 colon
U251 CNS = test system: U251 CNS
RXF 393 renal = test system: RXF 393 renal
K-562 leukemia = test system: K-562 leukemia
OVCAR-5 ovarian = test system: OVCAR-5 ovarian
CCRF-CEM leukemia = test system: CCRF-CEM leukemia
NCI-H522 lung = test system: NCI-H522 lung
IGROV1 ovarian = test system: IGROV1 ovarian
NCI-H460 lung = test system: NCI-H460 lung
SR leukemia = test system: SR leukemia
KM12 colon = test system: KM12 colon
OVCAR-4 ovarian = test system: OVCAR-4 ovarian
CAKI-1 renal = test system: CAKI-1 renal
DU-145 prostate = test system: DU-145 prostate
NCI-H23 lung = test system: NCI-H23 lung
M14 melanoma = test system: M14 melanoma
A498 renal = test system: A498 renal
HCT-15 colon = test system: HCT-15 colon
MDA-MB-435 = test system: MDA-MB-435
SF-295 CNS = test system: SF-295 CNS
SNB-75 CNS = test system: SNB-75 CNS
HL-60(TB) leukemia = test system: HL-60(TB) leukemia
TK-10 renal = test system: TK-10 renal
SW-620 colon = test system: SW-620 colon
HS 578T breast = test system: HS 578T breast
SF-539 CNS = test system: SF-539 CNS
LOX IMVI melanoma = test system: LOX IMVI melanoma
OVCAR-3 ovarian = test system: OVCAR-3 ovarian
NCI-H226 lung = test system: NCI-H226 lung
ACHN renal = test system: ACHN renal
MALME-3M melanoma = test system: MALME-3M melanoma
OVCAR-8 ovarian = test system: OVCAR-8 ovarian
SN12C renal = test system: SN12C renal
SK-MEL-28 melanoma = test system: SK-MEL-28 melanoma
EKVX NSCLC = test system: EKVX NSCLC
A549 NSCLC = test system: A549 NSCLC
HCT-116 colon = test system: HCT-116 colon
PC-3 prostate = test system: PC-3 prostate
MDA-MB-231 breast = test system: MDA-MB-231 breast
MOLT-4 leukemia = test system: MOLT-4 leukemia
HOP-62 NSCLC = test system: HOP-62 NSCLC
UACC-62 melanoma = test system: UACC-62 melanoma
786-0 renal = test system: 786-0 renal
NCI/ADR-RES ovarian = test system: NCI/ADR-RES ovarian
SF-268 CNS = test system: SF-268 CNS
HT29 colon = test system: HT29 colon
SK-OV-3 ovarian = test system: SK-OV-3 ovarian
COLO 205 colon = test system: COLO 205 colon
UACC-257 melanoma = test system: UACC-257 melanoma
SK-MEL-2 melanoma = test system: SK-MEL-2 melanoma
SK-MEL-5 melanoma = test system: SK-MEL-5 melanoma
MDA-N = test system: MDA-N

Measured: TGI

OC[C@H]1C[C@@H]2Cc3ccccc3N2N1
> 100 µM: all assays above
